The compounds below were run against T1, hmGluR4 (Homo sapiens, UniProt Q14833) (assay: HEK-293 mGluR4 cells cAMP assay with EC20 L-Glutamate (HTRF)). Settings: positive allosteric activity at EC20 L-Glutamate, 10 μM Forskolin, HEK293T mGluR4 cells, cAMP HTRF; read-out: hrmGluR4/HEK293T-hmGluR4 (EC50).
T1 construct: host or cells: HEK293T
T1 sequence (Q14833 33-912): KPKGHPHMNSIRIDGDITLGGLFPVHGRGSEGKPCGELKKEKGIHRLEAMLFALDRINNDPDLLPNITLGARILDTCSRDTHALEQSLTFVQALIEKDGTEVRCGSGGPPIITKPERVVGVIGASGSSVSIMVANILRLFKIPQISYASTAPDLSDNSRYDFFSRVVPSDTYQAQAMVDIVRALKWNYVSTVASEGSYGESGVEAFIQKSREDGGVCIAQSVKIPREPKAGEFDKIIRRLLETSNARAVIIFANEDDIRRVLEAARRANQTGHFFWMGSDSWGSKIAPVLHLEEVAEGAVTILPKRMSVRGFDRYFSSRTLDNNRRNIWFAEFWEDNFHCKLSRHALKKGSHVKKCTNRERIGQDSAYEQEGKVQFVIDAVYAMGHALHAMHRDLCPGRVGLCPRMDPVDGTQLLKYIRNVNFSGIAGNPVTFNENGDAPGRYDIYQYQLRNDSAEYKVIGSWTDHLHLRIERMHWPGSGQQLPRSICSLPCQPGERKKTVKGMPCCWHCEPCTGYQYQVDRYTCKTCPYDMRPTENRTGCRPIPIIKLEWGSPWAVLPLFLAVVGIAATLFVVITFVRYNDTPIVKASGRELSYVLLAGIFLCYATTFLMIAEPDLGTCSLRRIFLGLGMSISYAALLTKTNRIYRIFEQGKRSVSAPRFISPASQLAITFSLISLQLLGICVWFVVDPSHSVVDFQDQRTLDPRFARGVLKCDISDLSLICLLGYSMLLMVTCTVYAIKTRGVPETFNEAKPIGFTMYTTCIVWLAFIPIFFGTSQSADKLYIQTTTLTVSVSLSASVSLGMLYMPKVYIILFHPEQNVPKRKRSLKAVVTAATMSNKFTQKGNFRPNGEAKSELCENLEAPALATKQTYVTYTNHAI
Format: cell-based
Experimental: II. Biological Assays HEK-293 mGluR4 Cells cAMP Assay with EC20 L-Glutamate
Using mGluR4 suspension cell format, 10 μM Forskolin (final conc.) used to induce the production of cAMP.
Test the positive allosteric activity of the compounds of the invention at EC20 (2.3 μM for mGluR4 and 4.3 μM for mGluR6) L-Glutamate,
cAMP dymanic2 kit is intended for the direct quantitative determination of cAMP and its principle is based on HTRF technology.
• Cells: HEK293T mGluR4 cells from Multispan, cat# C1191a lot# C1191a-040910 • Culture Media: DMEM+GlutaMAX1+10% dialyzed FBS, 100 mM Sodium Pyruvate, 1 ug/ml puromycin. • Glutamine Starvation Media: DMEM without GlutaMax for plating the cells (glutamine starvation overnight). DMEM high Glucose, without phenol red, glutamine, or sodium pyruvate+10% dialyzed FBS, 100 mM Sodium Pyruvate, 1 ug/ml puromycin, 10 mM Hepes. • Hanks' balanced Salt Solution, HBSS from Invitrogen • Greiner 384 well white low volume high base plate (784075) • cAMP dynamic2 from Cisbio Bioassays • Glutamate: L-Glutamaic acid, monosodium salt, Monohydrate, 98%, from Sigma-Aldrich • Cell Preparation: split cells at 80%-90% confluence. The following day, rinse the cells with DMEM without GlutaMax and change to Glutamine Starvation Media. Incubate overnight. Assay: • Prepare compound plate: Perform compound serial dilution (uses Matrix 4341 plate), using the Bravo liquid handling platform protocol (compound serial dilution) which adds DMSO to columns 1-24 (except cols. 3 and 13). Serial dilute compounds located in columns 3 and 13 at a 1:3 ratio; 10 points (10 ul of 3 mM compound into 20 ul DMSO). Use the Bravo liquid handling platform to transfer 1 ul from the serial dilution plate into Matrix 4314 plate to create stamp plates. Prepare Compound Dilution Buffer: • Dilute 20 mM Forskolin (in DMSO) stock solution in HBSS buffer to make a 20 uM solution (forskolin buffer; 2× solution). To the forskolin buffer, add glutamate to a concentration of 8 uM (compound dilution buffer; 2× EC20 glutamate and forskolin). • Using a multidrop, add 50 ul/well of compound dilution buffer to columns 1-22 of the 2 ul compound stamp plate. Columns 23 and 24 receive forskolin buffer containing 400 uM glutamate (EC100 glutamate; 2× solution). Columns 1 and 2 receive compound dilution buffer containing EC20 glutamate, which is the basal control. • Add a glutamate dose response to row P of compound plate. Prepare the dose response by serial diluting glutamate at a 1:3 ratio in forskolin buffer starting at 2 mM glutamate (2×). Dilute the glutamate 9 times and transfer to compound plate. Prepare Cell Plates: • Harvest cells: Rinse cells with pre-warmed HBSS-10 mM HEPES (without Ca Mg) and dissociate the cells from the flask with versene. Centrifuge the cells, remove the supernatant and suspend in pre-warmed HBSS+10 mM Hepes. Count the cells and centrifuge. Remove the supernatant and suspend the cells in HBSS+Hepes (with Ca Mg) at a density of 400,000 cells/ml. Perform Assay: • Dispense 5 ul from the diluted compound plate into Greiner low volume cell plate using the Bravo liquid handling platform. Using a Multidrop with the small tubing cassette, dispense 5 ul of cells (2000 cells/well) onto the compounds contained in the low volume plates. Incubate the cells at 37° C., 5% CO2 for 30 minutes in the incubator. Assay for cAMP: • Prepare cAMP-d2 and anti-cAMP-Crytate according to the instructions for the two step assay (see Cisbio manual) and add 10 ul of the mixed reagent to each well of the assay plate using the Multidrop. Incubate at room temperature for 60 minutes and read on the Envision plate reader using the mGluR low volume cAMP HTRF 384 well protocol.
O=C1c2ccc(Br)cc2NC2(CCN(Cc3ccc(F)c(F)c3)CC2)N1c1ccc(Cl)cc1 [Compound 25, 7′-Bromo-3′-(4-chlorophenyl)-1-(3,4-difluorobenzyl)-1′H-spiro[piperidine-4,2′-quinazolin]-4′(3′H)-one] was tested, and the EC50 was less than 1000 nM.
O=C1c2ccc(Br)cc2NC2(CCN(Cc3ccccn3)CC2)N1c1ccc(OC(F)(F)F)cc1 [Compound 103, 7′-Bromo-1-(pyridin-2-ylmethyl)-3′-(4-(trifluoromethoxy)phenyl)-1′H-spiro[piperidine-4,2′-quinazolin]-4′(3′H)-one] showed an EC50 of 1000 to 10000 nM.
For COc1ccc(N2C(=O)c3ccccc3NC23CN(Cc2ccc(Cl)s2)C3)cc1 [Compound 98, 1-((5-Chlorothiophen-2-yl)methyl)-3′-(4-methoxyphenyl)-1′H-spiro[azetidine-3,2′-quinazolin]-4′(3′H)-one], the EC50 was 1000 to 10000 nM.
COc1ccc(N2C(=O)c3ccccc3NC23CN(Cc2ccccc2C)C3)cc1 [Compound 94, 3′-(4-Methoxyphenyl)-1-(2-methylbenzyl)-1′H-spiro[azetidine-3,2′-quinazolin]-4′(3′H)-one] gave an EC50 of 1000 to 10000 nM.
COc1ccc(N2C(=O)c3ccccc3NC23CN(Cc2ccccc2F)C3)cc1 [Compound 84, 1-(2-Fluorobenzyl)-3′-(4-methoxyphenyl)-1′H-spiro[azetidine-3,2′-quinazolin]-4′(3′H)-one] gave an EC50 of 1000 to 10000 nM.
CCOC(=O)c1ccc2c(c1)NC1(CN(C(c3ccc(F)c(F)c3)C(F)(F)F)C1)N(c1ccc(OC(F)(F)F)cc1)C2=O (centres unmarked) [Compound 34, Ethyl 1-(1-(3,4-difluorophenyl)-2,2,2-trifluoroethyl)-4′-oxo-3′-(4-(trifluoromethoxy)phenyl)-3′,4′-dihydro-1′H-spiro[azetidine-3,2′-quinazoline]-7′-carboxylate] was tested, and the EC50 was less than 1000 nM.
In the case of COc1ccc(N2C(=O)c3ccc(C)cc3NC23CCN(Cc2ccc(F)c(F)c2)CC3)cc1 [Compound 60], the EC50 is reported as less than 1000 nM.
In the case of N#Cc1cccc(CN2CC3(C2)Nc2cc(C(F)(F)F)ccc2C(=O)N3c2ccc(OC(F)(F)F)cc2)c1 [Compound 91, 3-((4′-Oxo-3′-(4-(trifluoromethoxy)phenyl)-7′-(trifluoromethyl)-3′,4′-dihydro-1′H-spiro[azetidine-3,2′-quinazolin]-1-yl)methyl)benzonitrile], the EC50 is reported as 1000 to 10000 nM.
Compound COc1ccc(N2C(=O)c3ccccc3NC23CN(Cc2cccc(Cl)c2)C3)cc1 [Compound 76, 1-(3-Chlorobenzyl)-3′-(4-methoxyphenyl)-1′H-spiro[azetidine-3,2′-quinazolin]-4′(3′H)-one] has an EC50 of 1000 to 10000 nM.
Work on COc1ccc(N2C(=O)c3ccccc3NC23CN(Cc2c(F)cccc2F)C3)cc1 [Compound 95, 1-(2,6-Difluorobenzyl)-3′-(4-methoxyphenyl)-1′H-spiro[azetidine-3,2′-quinazolin]-4′(3′H)-one] yielded an EC50 of 1000 to 10000 nM.
O=C1c2ccc(Br)cc2NC2(CCN(Cc3ccccc3OC(F)(F)F)CC2)N1c1ccc(OC(F)(F)F)cc1 [Compound 46, 7′-Bromo-1-(2-(trifluoromethoxy)benzyl)-3′-(4-(trifluoromethoxy)phenyl)-1′H-spiro[piperidine-4,2′-quinazolin]-4′(3′H)-one] gave an EC50 of less than 1000 nM.
Compound COC(=O)c1ccc2c(c1)NC1(CCN(Cc3ccccc3)CC1)N(c1ccc(OC)cc1)C2=O [Compound 15, Methyl 1-benzyl-3′-(4-methoxyphenyl)-4′-oxo-3′,4′-dihydro-1′H-spiro[piperidine-4,2′-quinazoline]-7′-carboxylate] has an EC50 of less than 1000 nM.
For CC(=O)c1ccc2c(c1)NC1(CCN(Cc3ccc(F)c(F)c3)CC1)N(c1ccc(OC(F)(F)F)cc1)C2=O [Compound 77, 7′-Acetyl-1-(3,4-difluorobenzyl)-3′-(4-(trifluoromethoxy)phenyl)-1′H-spiro[piperidine-4,2′-quinazolin]-4′(3′H)-one], the EC50 was 1000 to 10000 nM.
COc1ccc(N2C(=O)c3ccccc3NC23CN(Cc2cccc4ccccc24)C3)cc1 [Compound 86, 3′-(4-Methoxyphenyl)-1-(naphthalen-1-ylmethyl)-1′H-spiro[azetidine-3,2′-quinazolin]-4′(3′H)-one] was tested, and the EC50 was 1000 to 10000 nM.
For Cc1ccc(CN2CCC3(CC2)Nc2cc(Br)ccc2C(=O)N3c2ccc(OC(F)(F)F)cc2)o1 [Compound 113, 7′-Bromo-1-((5-methylfuran-2-yl)methyl)-3′-(4-(trifluoromethoxy)phenyl)-1′H-spiro[piperidine-4,2′-quinazolin]-4′(3′H)-one], the EC50 was 1000 to 10000 nM.
Work on COc1ccc(N2C(=O)c3ccccc3NC23CCN(Cc2cccc(Cl)c2)CC3)cc1 [Compound 104, 1-(3-Chlorobenzyl)-3′-(4-methoxyphenyl)-1′H-spiro[piperidine-4,2′-quinazolin]-4′(3′H)-one] yielded an EC50 of 1000 to 10000 nM.
For COc1ccc(N2C(=O)c3ccccc3NC23CCN(Cc2ccccc2OC(F)(F)F)CC3)cc1 [Compound 67, 3′-(4-Methoxyphenyl)-1-(2-(trifluoromethoxy)benzyl)-1′H-spiro[piperidine-4,2′-quinazolin]-4′(3′H)-one], the EC50 was 1000 to 10000 nM.
With COc1ccc(N2C(=O)c3ccc(OC)cc3NC23CCN(Cc2cccc(C#N)c2)CC3)cc1 [Compound 100, 3-((7′-Methoxy-3′-(4-methoxyphenyl)-4′-oxo-3′,4′-dihydro-1′H-spiro[piperidine-4,2′-quinazolin]-1-yl)methyl)benzonitrile] the EC50 was 1000 to 10000 nM.
COc1ccc(N2C(=O)c3ccc(Cl)cc3NC23CCN(Cc2cccc(Cl)c2)CC3)cc1 [Compound 38, 7′-Chloro-1-(3-chlorobenzyl)-3′-(4-methoxyphenyl)-1′H-spiro[piperidine-4,2′-quinazolin]-4′(3′H)-one] was tested, and the EC50 was less than 1000 nM.
COc1ccc(N2C(=O)c3ccccc3NC23CCN(Cc2ccccc2C)CC3)cc1 [Compound 109, 3′-(4-Methoxyphenyl)-1-(2-methylbenzyl)-1′H-spiro[piperidine-4,2′-quinazolin]-4′(3′H)-one] gave an EC50 of 1000 to 10000 nM.
O=C1c2ccc(Br)cc2NC2(CCN(Cc3cnc(Br)s3)CC2)N1c1ccc(OC(F)(F)F)cc1 [Compound 110, 7′-Bromo-1-((2-bromothiazol-5-yl)methyl)-3′-(4-(trifluoromethoxy)phenyl)-1′H-spiro[piperidine-4,2′-quinazolin]-4′(3′H)-one] was tested, and the EC50 was 1000 to 10000 nM.
For O=C1c2ccc(F)cc2NC2(CCN(Cc3ccc(F)c(F)c3)CC2)N1c1ccc(Br)cc1 [Compound 51, 3′-(4-Bromophenyl)-1-(3,4-difluorobenzyl)-7′-fluoro-1′H-spiro[piperidine-4,2′-quinazolin]-4′(3′H)-one], the EC50 was less than 1000 nM.
For O=C1c2ccc(Br)cc2NC2(CCN(Cc3ccccc3)CC2)N1c1ccc(OC(F)(F)F)cc1 [Compound 28, 1-Benzyl-7′-bromo-3′-(4-(trifluoromethoxy)phenyl)-1′H-spiro[piperidine-4,2′-quinazolin]-4′(3′H)-one], the EC50 was less than 1000 nM.
O=C1c2ccc(Br)cc2NC2(CCN(Cc3ccccc3O)CC2)N1c1ccc(OC(F)(F)F)cc1 [Compound 49, 7′-Bromo-1-(2-hydroxybenzyl)-3′-(4-(trifluoromethoxy)phenyl)-1′H-spiro[piperidine-4,2′-quinazolin]-4′(3′H)-one] was tested, and the EC50 was less than 1000 nM.
COc1ccc(N2C(=O)c3ccc(-c4ccco4)cc3NC23CCN(Cc2ccc(F)c(F)c2)CC3)cc1 [Compound 11, 1-(3,4-Difluorobenzyl)-7′-(furan-2-yl)-3′-(4-methoxyphenyl)-1′H-spiro[piperidine-4,2′-quinazolin]-4′(3′H)-one] was tested, and the EC50 was less than 1000 nM.
Work on COc1ccc(N2C(=O)c3ccccc3NC23CN(Cc2ccc(C)cc2)C3)cc1 [Compound 72, 3′-(4-Methoxyphenyl)-1-(4-methylbenzyl)-1′H-spiro[azetidine-3,2′-quinazolin]-4′(3′H)-one] yielded an EC50 of 1000 to 10000 nM.
